Experimental data from patent publication US20170340584A1 (priority 2014, published 2017).
“And” between values parts separate entries of the source, which are not always exact repeats. Identical values can stand only once. Blank lines part the entries; values can stand above or below the molecule they belong to.

Assays:
[1] = Thermogravimetric analysis (TGA); type: physicochemical; conditions: first-order differentiation of TGA; N2, 20° C./min
Method: For reference, an analysis instrument and analysis conditions are as follows. (1) Analysis instrument: TGA 7 (Perkin-Elmer) (2) Atmosphere: N2 gas (3) Heating rate: 20° C./min (4) Range: 50 to 600° C.

[2] = Blood biochemistry (triglyceride, AST, ALT) in high-fat diet mice; type: in vivo, mice (C57BL/6); conditions: blood
Method: (§1) Using 8-week-old male mice (C57BL/6) (purchased from CoreTech), anti-diabetic candidate materials were evaluated using a GTT (Glucose Tolerance Test) that is a typical method for diagnosis of diabetes.
(§2) As feed, high-fat diet (60% of calories from fat; Research Diet Inc., New Brunswick, N.J.) and water were fed ad libitum for 10 weeks. Herein, the water fed contained the samples prepared in Examples 1-2 (3), 2-1, 2-4-1, 2-4-2 and 2-5. As a positive control, metformin (M-072, Sigma) (250 mg/kg) was used, and as a control, the samples prepared in Comparative Examples 1-1, 2-3-2, 2-5-1, 2-5-2 and 2-6 were used.
In blood biochemistry, insulin (AKRIN-011T, Shibayagi, Japan), glucose (AM202, Asan Pharmaceutical Co., Ltd., Korea), triglyceride (AM157, Asan Pharmaceutical Co., Ltd.), total cholesterol (AM202, Asan Pharmaceutical Co., Ltd.), AST and ALT (Asan Pharmaceutical Co., Ltd.) were analyzed using enzymatic assay kits.
At 10 weeks of high-fat diet feeding, the mice were sacrificed by cervical dislocation to obtain serum. For histological examination, the liver, white adipose tissue (WAT), brown adipose tissue (BAT) and kidney were fixed with formalin (50-00-0, Junsei, Japan), and the remaining organs were stored at −70° C. The blood sampled from the heart was coagulated to obtain serum which was then stored at −70° C.
(§3) Meanwhile, experimental analysis results were expressed as mean±S.E.M., and the significance between test groups was statistically processed using Student T-TEST, and then the significance was verified at *P<0.05.

[3] = Glucose tolerance test (GTT) in high-fat diet mice; type: in vivo, mice (C57BL/6); conditions: for Glucose level (mg/dl), Mean: GTT, high-fat diet mice
Method: as §1
(§4) Mice were housed at a temperature of 22±2° C. and a relative humidity of 55-60% with 12-hr light/12-hr dark cycles. Five animals were allotted to each group, and mice from the same mother were grouped into one group, because male mice tend to fight together.
as §2
(§5) For reference, each of the samples prepared in Examples 2-4-1, 2-4-2 and 2-5 was set to the amount to be taken by an adult (60 kg) for 3 days, and the amount was converted into a mouse dose (12-fold/kg, see the US NIH guidance), thereby preparing animal feed. Namely, the amount to be taken by an adult (60 kg) for 3 days is 180-day dose/kg, which corresponds to 15-day dose/kg for mice. Thus, the amount corresponds to 750-day dose/mouse (20 g), because the average weight of mice is about 20 g. Thus, one mouse was allowed to take 1/750 of the prepared sample each day.
(§6) In addition, each of the samples prepared in Examples 1-2 (3) and 2-1 was set to the amount to be taken by an adult (60 kg) for 2 days, and the amount was converted into a mouse dose (12-fold/kg, see the US NIH guidance), thereby preparing animal feed. Namely, the amount to be taken by an adult (60 kg) for 2 days is 120-day dose/kg, which corresponds to 10-day dose/kg for mice. Thus, the amount corresponds to 500-day dose/mouse (20 g), because the average weight of mice is about 20 g. Thus, one mouse was allowed to take 1/500 of the prepared sample each day.
At 8 weeks of high-fat diet feeding, a glucose tolerance test (GTT) was performed. For 8 hours for the test, mice were fasted. Then, blood was sampled from the tail vein, and initial blood glucose levels were measured with a blood glucose meter (AUTO-CHEK, Diatech Korea). Then, glucose was administered intraperitoneally to the mice at a concentration of 1 g/kg, and after 30 min, 60 min, 90 min and 120 min, blood was sampled from the mice, followed by measurement of blood glucose levels (each group consisting of five animals).
as §3

[4] = Scanning electron microscope (SEM) analysis, particle size; type: physicochemical
From the text: For reference, an analysis instrument and analysis conditions are as follows. (1) Analysis instrument: HITACHI (S-2700), Japan (2) Electron gun: Tungsten filament type (3) Resolution: 4.0 nm (4) Accelerating voltage: 15.0 kV.

[5] = Body weight and body weight gain of high-fat diet mice; type: in vivo, mice (C57BL/6); conditions: for Body weight gain, Mean / Body weight, Mean: sample in drinking water, metformin 250 mg/kg
Method: as §1, §4, §2, §5, §6
The diet intake and the body weight gain were measured weekly for 8 weeks. The body weight and the diet intake were measured immediately before first drug administration, and then measured at one-week intervals.
as §3

plasma [6] = assay: Anticoagulant activity: prothrombin time (PT); type: biochemical, human; conditions: 20 μl sample + 80 μl plasma, test material g/dL (Asp 7.5 mg/Ml)
Method: (§7) Antithrombotic (anticoagulant) activity was evaluated according to a previously reported method. Each of thromborel S, actin and thrombin, which are reagents for Sysmex CA-1500 for analysis of PT, aPTT and TT, was mounted in Sysmex CA-1500 (Siemens Healthcare, Germany) which is an automated blood coagulation test device. According to the automated procedure of the test device, clotting time (sec) (prothrombin time (PT), activated partial thromboplastin time (aPTT) and thrombin time (TT)) was measured. A sufficient amount of a sample for each of the three analyses was about 400 uL of an 80:20 mixture of plasma and a test substance.
(§8) The isolated plasma was used in an experiment in a fresh state within 5-6 hours.
(§9) In this experiment, for the relative comparison of the measured clotting time (sec) (PT, aPTT and TT) between test groups, clotting time prolongation (%) relative to triple distilled water (purified water) that is a normal control test sample was statistically analyzed. For statistical analysis, the […] anticoagulant activities of test materials were comparatively analyzed using SPSS IBM version 21.0 by one-way ANOVA at p<0.05, and significance comparison between groups was performed by Duncan's test.
(§10) The aspirin solution was immediately used at room temperature in a light-shielded state or was cold-stored.
(§11) As a control, aspirin was used, and as a vehicle control, triple distilled water (purified water) was used instead of the sample.

plasma [7] = assay: Anticoagulant activity: activated partial thromboplastin time (aPTT); type: biochemical, human; conditions: 20 μl sample + 80 μl plasma, test material g/dL (Asp 7.5 mg/Ml)
Method: as §7, §8, §9, §10, §11

plasma [8] = assay: Anticoagulant activity: thrombin time (TT); type: biochemical, human; conditions: 20 μl sample + 80 μl plasma, test material g/dL (Asp 7.5 mg/Ml)
Method: as §7, §8, §9, §10, §11

Final decomposition temperature [1]: 394 °C | First decomposition temperature [1]: 362 °C | Average particle size [4]: 222.06 μm | Median particle size [4]: 192.92 μm
SMILES: NCCS(=O)(=O)O [DT19, taurine]
ALT level (IU/L), Mean [2]: 25.47 IU/L | AST level (IU/L), Mean [2]: 118.63 IU/L | Triglyceride level (mg/dl), Mean [2]: 116.20 mg/dL | Glucose level (mg/dl), Mean ([3]; 0 min): 111.80 mg/dL | Glucose level (mg/dl), Mean ([3]; 30 min): 298.00 mg/dL | Glucose level (mg/dl), Mean ([3]; 60 min): 295.60 mg/dL | Glucose level (mg/dl), Mean ([3]; 90 min): 189.40 mg/dL | Glucose level (mg/dl), Mean ([3]; 120 min): 119.00 mg/dL | Fasting glucose level ([3]; at 8 weeks of high-fat diet feeding, 8 hours fasted): lower than that of the mice administered with high-fat diet (HFD), and were similar to the blood glucose levels of normal mice | Glucose control ability in GTT ([3]; at 8 weeks of high-fat diet feeding, glucose 1 g/kg intraperitoneally, 30-120 min): significantly higher than that of the group administered with HFD alone | Body weight gain, Mean ([5]; 1 week): 2.20 g | Body weight, Mean ([5]; 1 week): 21.46 g | Body weight gain, Mean ([5]; 2 weeks): 4.36 g | Body weight, Mean ([5]; 2 weeks): 23.62 g | Body weight gain, Mean ([5]; 3 weeks): 5.34 g | Body weight, Mean ([5]; 3 weeks): 24.60 g | Body weight gain, Mean ([5]; 4 weeks): 6.52 g | Body weight, Mean ([5]; 4 weeks): 25.78 g | Body weight gain, Mean ([5]; 5 weeks): 8.12 g | Body weight, Mean ([5]; 5 weeks): 27.38 g | Body weight gain, Mean ([5]; 6 weeks): 7.94 g | Body weight, Mean ([5]; 6 weeks): 27.20 g | Body weight gain, Mean ([5]; 7 weeks): 8.80 g | Body weight, Mean ([5]; 7 weeks): 28.06 g | Body weight, Mean ([5]; 8 weeks): 28.78 g | Body weight, Mean ([5]; before administration): 19.26 g

SMILES: CN(C)C(=N)N=C(N)N [Metformin, metformin]
Triglyceride level (mg/dl), Mean [2]: 62.99 mg/dL | Glucose level (mg/dl), Mean ([3]; 0 min): 144.20 mg/dL and 104.40 mg/dL | Glucose level (mg/dl), Mean ([3]; 30 min): 386.40 mg/dL and 438.40 mg/dL | Glucose level (mg/dl), Mean ([3]; 60 min): 301.40 mg/dL and 296.40 mg/dL | Glucose level (mg/dl), Mean ([3]; 90 min): 194.40 mg/dL and 178.00 mg/dL | Glucose level (mg/dl), Mean ([3]; 120 min): 135.20 mg/dL and 146.20 mg/dL | Body weight (g), Mean ([5]; 1 week): 23.550 g and 25.094 g | Body weight gain, Mean ([5]; 1 week): 1.70 g | Body weight, Mean ([5]; 1 week): 21.00 g | Body weight (g), Mean ([5]; 2 weeks): 23.608 g and 26.344 g | Body weight gain (g), Mean ([5]; 2 weeks): 2.503 g and 2.406 g | Body weight gain, Mean ([5]; 2 weeks): 3.48 g | Body weight, Mean ([5]; 2 weeks): 22.78 g | Body weight (g), Mean ([5]; 3 weeks): 25.125 g and 27.430 g | Body weight gain (g), Mean ([5]; 3 weeks): 4.020 g and 3.492 g | Body weight gain, Mean ([5]; 3 weeks): 4.54 g | Body weight, Mean ([5]; 3 weeks): 23.84 g | Body weight (g), Mean ([5]; 4 weeks): 25.705 g and 27.708 g | Body weight gain (g), Mean ([5]; 4 weeks): 4.600 g and 3.770 g | Body weight gain, Mean ([5]; 4 weeks): 5.88 g | Body weight, Mean ([5]; 4 weeks): 25.18 g | Body weight (g), Mean ([5]; 5 weeks): 27.198 g and 28.572 g | Body weight gain (g), Mean ([5]; 5 weeks): 6.093 g and 4.634 g | Body weight gain, Mean ([5]; 5 weeks): 6.42 g | Body weight, Mean ([5]; 5 weeks): 25.72 g | Body weight (g), Mean ([5]; 6 weeks): 28.355 g and 28.772 g | Body weight gain (g), Mean ([5]; 6 weeks): 7.250 g and 4.834 g | Body weight gain, Mean ([5]; 6 weeks): 7.04 g | Body weight, Mean ([5]; 6 weeks): 26.34 g | Body weight (g), Mean ([5]; 7 weeks): 27.368 g and 28.468 g | Body weight gain (g), Mean ([5]; 7 weeks): 6.263 g and 4.530 g | Body weight gain, Mean ([5]; 7 weeks): 8.22 g | Body weight, Mean ([5]; 7 weeks): 27.52 g | Body weight (g), Mean ([5]; 8 weeks): 29.343 g and 27.608 g | Body weight gain, Mean ([5]; 8 weeks): 8.90 g | Body weight, Mean ([5]; 8 weeks): 28.20 g | Body weight (g), Mean ([5]; before administration): 21.105 g and 23.938 g | Body weight, Mean ([5]; before administration): 19.30 g

SMILES: O=C(CO)[C@@H](O)[C@H](O)[C@H](O)CO [Fruc 6.2, fructose]
PT, clotting time prolongation relative to purified water, Mean (plasma [6]; Table 4): 0.54% | aPTT, clotting time prolongation relative to purified water, Mean (plasma [7]; Table 4): −0.20% | TT, clotting time prolongation relative to purified water, Mean (plasma [8]; Table 4): 13.19%

SMILES: O=C(CO)[C@@H](O)[C@H](O)[C@H](O)CO [Fruc 12.4, fructose]
PT, clotting time prolongation relative to purified water, Mean (plasma [6]; Table 4): 0.54% | aPTT, clotting time prolongation relative to purified water, Mean (plasma [7]; Table 4): 0.58% | TT, clotting time prolongation relative to purified water, Mean (plasma [8]; Table 4): 30.07%

SMILES: CC(=O)Oc1ccccc1C(=O)O [Asp, aspirin]
PT, clotting time prolongation relative to purified water, Mean (plasma [6]; Table 2): 9.90% | PT, clotting time prolongation relative to purified water, Mean (plasma [6]; Table 3): 17.51% | PT, clotting time prolongation relative to purified water, Mean (plasma [6]; Table 4): 26.02% | aPTT, clotting time prolongation relative to purified water, Mean (plasma [7]; Table 2): 7.31% | aPTT, clotting time prolongation relative to purified water, Mean (plasma [7]; Table 3): 16.28% | aPTT, clotting time prolongation relative to purified water, Mean (plasma [7]; Table 4): 29.82% | TT, clotting time prolongation relative to purified water, Mean (plasma [8]; Table 2): 13.59% | *TT, clotting time prolongation relative to purified water, Mean (plasma [8]; Table 3, values excluding one sample showing an extreme value): 20.96% | TT, clotting time prolongation relative to purified water, Mean (plasma [8]; Table 4): 23.95%
